What all share (format): biochemical
Experiment [1] in a line: ABTS radical cation scavenging (decolorization) assay. To be noted: mean ± SEM, n = 3. How it is done: The ABTS assay is based on the direct quenching of the ABTS cation radical (ABTS^•+) by antioxidants. The assay is carried out by spectrophotometric determination of a decrease in absorbance of a stable dark green ABTS^•+ solution after its interaction with an antioxidant compound [56]. The measurements were performed as previously described in detail. The results are expressed as TEAC values (Trolox equivalent antioxidant capacity) and IC50 values (compound concentration required for 50% reduction of the ABTS radical).
Radical scavenging activity of the compounds was assessed using the ABTS radical cation (ABTS^•+) decolorization assay with some modifications. ABTS (2,2′-azinobis-(3-ethylbenzothiazoline-6-sulfonic acid)) was purchased from Tokyo Chemical Industry Co., Ltd. (Tokyo, Japan), and potassium persulfate (dipotassium peroxodisulfate), Trolox (6-hydroxy-2,5,7,8-tetramethylchroman-2-carboxylic acid), and HPLC-grade ethanol and DMSO were obtained from Sigma-Aldrich (Saint Louis, MO, USA). Aqueous solutions were prepared using deionized water. All test compounds were dissolved in DMSO.
The solution of cation radical ABTS^•+ was produced by incubation of an aqueous solution of 7 mM ABTS and 2.45 mM potassium persulfate solution in equal quantities for 12–16 h at room temperature in the dark. Radical scavenging capacity of the compounds was analyzed by mixing 10 μL of compound with 240 μL of ABTS^•+ working solution in ethanol (100 μM final concentration). Data were given for 1 h of incubation of compounds with ABTS^•+. The reduction in absorbance was measured spectrophotometrically at 734 nm using an xMark microplate UV/VIS microplate spectrophotometer (Bio-Rad, Hercules, CA, USA).
Ethanol blanks were run in each assay. Values were obtained from three replicates of each sample and three independent experiments.
Standard antioxidant Trolox was used as a reference compound. Antioxidant capacity as Trolox equivalent (TEAC) values was determined as the ratio between the slopes obtained from the linear correlation of the ABTS radical absorbance with the concentrations of tested compounds and Trolox. Quercetin was used as a positive control. For the test compounds that reduced ABTS^•+ absorbance by more than 60% at 100 µM, we also determined the IC50 values (the compound concentration required for a 50% reduction of the ABTS radical). The compounds were tested in the concentration range of 0.5–400 µM.

A short description of experiment [2]: FRAP (ferric reducing antioxidant power) assay. To be noted: mean ± SEM, n = 3; 1 h, 37 °C, pH 3.6. How it is done: The FRAP (ferric reducing antioxidant power) assay measures the ability of antioxidants to reduce the ferric 2,4,6-tripyridyl-s-triazine complex [Fe(TPTZ)2]^3+ to the intensely blue ferrous complex [Fe(TPTZ)2]^2+ in an acidic medium. The measurements were performed as previously described in detail. The results are expressed as TE (Trolox equivalents).
The FRAP (ferric reducing antioxidant power) assay measures the ability of antioxidants to reduce the ferric 2,4,6-tripyridyl-s-triazine complex [Fe (TPTZ)2]^3+ to the intensely blue ferrous complex [Fe (TPTZ)2]^2+ (λ = 593 nm) in acidic medium. 2,4,6-Tris(pyridin-2-yl)-1,3,5-triazine (TPTZ), FeCl3·6H2O, Trolox, quercetin and DMSO were obtained from Sigma-Aldrich Chemical Co. (St. Louis, MO, USA). The FRAP reagent contained 2.5 mL of 10 mM TPTZ solution in 40 mM HCl, 2.5 mL of 20 mM FeCl3·6H2O water solution, and 25 mL of 0.3 M acetate buffer (pH 3.6). Aliquots of 10 µL of the test compound solution in DMSO (0.5 mM) were mixed with 240 µL of FRAP reagent, and the absorbance of the mixture was measured spectrophotometrically (FLUOStar OPTIMA microplate spectrophotometer (BMG Labtech, Ortenberg, Germany)) at 600 nm after 1 h incubation at 37 °C against a blank. Trolox was used as a reference compound. Quercetin was used as a positive control. A calibration curve with linear formula y = 0.03x (R^2 = 0.998, p < 0.0001) was prepared for Trolox solutions in DMSO at a range of 2.5–100 µM, and the results are expressed as Trolox equivalents (TE), the values calculated as the ratio of the concentrations of Trolox and the test compound, resulting in the same effect.

The nature of experiment [3]: ORAC-FL (oxygen radical absorbance capacity) assay. The settings on record: mean ± SEM, n = 3; 2 h; 10 μM compound and Trolox. An excerpt: In the oxygen radical absorbance capacity (ORAC-FL) assay, 2,2′-azobis-(2-methylpropionamidine) dihydrochloride (AAPH) is used as a free peroxyl radical generator, and fluorescein (FL) is used as a fluorescent probe. The method is based on measuring the decrease in the intensity of fluorescence with time, which characterizes the degree of decay of the fluorescent probe under the influence of peroxyl radicals. In the presence of antioxidants, the degree of decay of the fluorescent probe decreases and, accordingly, the fluorescence intensity increases. The results are expressed as TE (Trolox equivalents).
The ORAC assay utilizes a biologically relevant radical source, 2,2′-azobis(2-amidinopropane) dihydrochloride (AAPH)-derived peroxyl radicals. Thus, it is a more physiologically relevant assay than ABTS and FRAP.
The oxygen radical absorbance capacity (ORAC) was determined by the ability of compounds to protect fluorescein (FL) from peroxyl radicals that are generated by AAPH according to the known method with minor variations. The reaction was carried out at 37 °C in black 96-well plates (SPL life sciences), and the final volume of the reaction mixture was 200 µL per well. The fluorescence was recorded by Tecan M1000 PRO microplate reader (Switzerland) at 485 nm excitation and 520 nm emission.
The 0.7 mM fluorescein sodium salt stock solution in PBS pH 7.4 (137 mM sodium chloride, 2.7 mM potassium chloride, and 10 mM phosphate buffer) was prepared and stored at 4–5 °C no longer than one month. An aliquot of the fluorescein stock solution was further diluted with PBS immediately before each assay to yield a 70 nM working solution. The 133 mM AAPH solution in PBS was prepared immediately before use. The test compounds and Trolox standard were dissolved in DMSO to 400 μM. The final concentration was 10 μM for all of the samples.
The blank was composed of 15 μL PBS pH 7.4, 5 μL DMSO (final concentration: 2.5% (v/v)), 120 μL FL, and 60 μL AAPH, and it was included in each assay. PBS pH 7.4 (15 μL), antioxidant (the test compound or Trolox, 5 μL), and FL (120 μL, final concentration: 42 nM) solutions were placed in a black 96-well microplate and were pre-incubated for 15 min at 37 °C. AAPH solution (60 μL, final concentration 40 mM) was then added rapidly using a multichannel pipette. The fluorescence was recorded every minute for 2 h. A Trolox standard curve was also obtained in each assay. All reactions were carried out in quadruplicate, and two to four independent assays were performed for each sample.
Antioxidant curves (fluorescence vs. time) were first normalized to the curve of the blank (without antioxidant) corresponding to the same assay, and the net AUC corresponding to a sample was calculated by subtracting the AUC corresponding to the blank. The ORAC value was obtained by dividing the latter curve by the Trolox curve obtained in the same assay at 10 μM concentrations of compounds and Trolox. Final ORAC values, Trolox equivalents (TE), were expressed as μmol test compounds per μmol Trolox, where the value of TE for Trolox was taken as 1. Data were expressed as means ± SEM.

Experiment [4] in a line: ORAC-FL (oxygen radical absorbance capacity) assay. To be noted: mean ± SEM, n = 3; 2 h; read-out: ORAC-FL IC50 (compound concentration required for 50% reduction of peroxyl radical) (converted).

SMILES strings stand for the structures.

As to `Cc1c(C)c2c(c(C)c1O)CCC(C)(C(=O)O)O2` (centres unmarked) [Trolox, 6-hydroxy-2,5,7,8-tetramethylchroman-2-carboxylic acid, reference compound], the IC50 is 20.1 µM in experiment [1] (1 h, read-out: ABTS IC50 (compound concentration required for 50% reduction of the ABTS radical-cation) (converted)) and 23.6 µM in experiment [4]. In addition, the “ABTS TEAC (Trolox equivalent antioxidant capacity)” value in experiment [1] (1 h incubation, relative to Trolox) came out at 1.0 TEAC. The “FRAP TE (Trolox equivalent)” value in experiment [2] is recorded as 1.0 TE. Further, the “ORAC-FL TE (Trolox equivalent)” value in experiment [3] is given as 1.0 TE.

For the origin of these results see paper PMC9699072 (Molecules, 2022).
